This note sets out measurements from patent publication US11786494B2, “Methods of modulation of branched chain acids and uses thereof” (Baylor College of Medicine, priority 2009, dated 2023).

Test [1] has as its target T1, mitochondrial branched chain amino transferase (BCATm) (Homo sapiens, UniProt O15382).
T1 sequence (O15382 28-392): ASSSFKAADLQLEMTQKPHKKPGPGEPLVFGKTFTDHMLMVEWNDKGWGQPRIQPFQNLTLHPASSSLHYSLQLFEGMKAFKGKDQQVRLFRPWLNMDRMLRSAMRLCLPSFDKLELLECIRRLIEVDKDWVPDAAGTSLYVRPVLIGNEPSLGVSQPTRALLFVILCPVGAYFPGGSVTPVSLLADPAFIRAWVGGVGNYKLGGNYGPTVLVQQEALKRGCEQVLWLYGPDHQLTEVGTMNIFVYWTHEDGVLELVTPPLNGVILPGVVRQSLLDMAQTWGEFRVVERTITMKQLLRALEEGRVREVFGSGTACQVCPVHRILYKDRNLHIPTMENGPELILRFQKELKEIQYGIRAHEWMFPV
Nature of the test: BCATm activity with purified recombinant enzyme. The note with it: pH 8.0, 298 K. The format is biochemical. The protocol:
(§1) To determine the effect of phenylbutyrate on individual BCAA catabolic enzymes, activities of mitochondrial branched chain amino transferase (BCATm) and BCKDC enzymes were measured with and without phenylbutyrate using purified recombinant enzymes. BCATm generates the BCKA products that are elevated in MSUD and are the substrates for BCKDC. BCATm activity was measured at pH 8.0 and 298 K as described in Example 2. Kinetics of the E1 decarboxylase reaction with and without phenylbutyrate were determined in the presence of an artificial electron acceptor 2, 6-dichlorophenolindophenol (DCPIP). The assay mixture contained 100 mM potassium phosphate, pH 7.5, 2.0 mM MgCl2, 0.2 mM thiamin diphosphate (ThDP) and 0.1 mM DCPIP. The rate of decarboxylation at 30° C. was measured by monitoring the reduction of the dye at 600 nm (24, 25). For the overall BCKDC activity assay, the enzymes were exchanged into phosphate buffer (30 mM potassium phosphate, pH 7.5) containing 5 mM DTT using a PD-10 column and the enzyme concentrations were calculated from the absorption maxima at 280 nm. […] The overall reaction was monitored by formation of NADH at 340 nm. The apparent rate constants (kapp) at different substrate concentrations for all of the above assays were determined from the absorption changes at the individual wavelength maximum. […]

Test [2] deals with T2, E1 (unphosphorylated) of BCKDC (Homo sapiens, UniProt P12694+P21953).
T2 sequence (P12694 46-445): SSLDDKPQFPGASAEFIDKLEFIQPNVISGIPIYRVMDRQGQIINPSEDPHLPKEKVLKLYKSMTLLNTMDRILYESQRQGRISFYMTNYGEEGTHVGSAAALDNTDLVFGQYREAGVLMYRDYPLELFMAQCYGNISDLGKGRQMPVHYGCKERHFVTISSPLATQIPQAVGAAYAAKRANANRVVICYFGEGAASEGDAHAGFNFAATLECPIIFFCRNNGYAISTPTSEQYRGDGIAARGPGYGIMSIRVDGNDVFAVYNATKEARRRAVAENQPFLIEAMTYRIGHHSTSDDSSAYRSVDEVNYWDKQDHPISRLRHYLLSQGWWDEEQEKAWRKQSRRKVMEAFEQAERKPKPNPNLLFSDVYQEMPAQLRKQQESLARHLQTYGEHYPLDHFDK
T2 sequence (P21953 51-392): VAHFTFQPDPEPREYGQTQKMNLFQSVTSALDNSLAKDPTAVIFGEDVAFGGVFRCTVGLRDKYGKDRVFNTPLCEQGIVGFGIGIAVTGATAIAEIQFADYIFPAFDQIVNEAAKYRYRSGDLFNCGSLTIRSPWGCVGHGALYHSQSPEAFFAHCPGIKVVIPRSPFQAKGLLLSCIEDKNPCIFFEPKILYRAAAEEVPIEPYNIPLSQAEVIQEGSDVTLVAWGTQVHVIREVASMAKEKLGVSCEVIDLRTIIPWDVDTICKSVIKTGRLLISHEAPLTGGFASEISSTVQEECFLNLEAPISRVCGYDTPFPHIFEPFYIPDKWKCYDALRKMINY
Description: E1 catalyzed decarboxylase activity (DCPIP assay). The test is classed as biochemical. Here is the method:
as §1

A further test has as its target T3, phosphorylated E1 (Homo sapiens, UniProt P12694+P21953).
T3 sequence (P12694 46-445): T2 sequence (P12694 46-445)
T3 sequence (P21953 51-392): T2 sequence (P21953 51-392)
Nature of the test: E1 decarboxylase activity measured after inactivation by BDK. The format is biochemical. The protocol:
as §1

The target of the next test is T4, BCKDC (Homo sapiens, UniProt P12694+P21953).
T4 sequence (P12694 46-445): T2 sequence (P12694 46-445)
T4 sequence (P21953 51-392): T2 sequence (P21953 51-392)
Description: Leucine oxidation in lymphoblast cells in presence of CIC. The test is classed as cell-based. The arrangement: Transformed lymphoblast cell lines were available from all 5 MSUD patients and from 2 controls to measure BCKDC activity; endogenous in cells. As to conditions: control lymphoblasts, 1 mM phenylbutyrate 48 h, 1 mM CIC in the assay. Here is the method: FIGS. 8A-8C. FIGS. 8A and 8B show leucine oxidation in presence of CIC in lymphoblast cells from control subjects (C-660, C-661) and MSUD patients (P-1, -2, -3, -4, -5) untreated or treated with 1 mM phenylbutyrate for 48 h. Leucine oxidation was measured by using radioactive assay as described in Materials and Methods and is expressed in pmol CO2 released/min/mg protein. CIC was added to all reactions in 1 mM concentration. Values are means±SD (n=3), * p≥0.05, **p≥0.01. […] Images are representative of two independent experiments.
Because phenylbutyrate affects E1α phosphorylation state in vivo (see FIG. 5), leucine oxidation was measured in the same cell lines as in FIG. […] with CIC in the assay. […] Changes in BCAT isoenzyme activity also impacts BCKA production, in specific cases. All patient cell lines accumulated more KIC than observed in control cell lines.

Turning to `O=C([O-])CCCc1ccccc1.[Na+]` [phenylbutyrate, sodium 4-phenylbutyrate], in test [1], the “BCATm kinetics including kcat and Km” value is given as “no effect”. Moreover, the “kcat, KMV” value in test [2] (E1 catalyzed decarboxylase activity, [+] Phenylbutyrate) is 0.3 ± 0.0167 s⁻¹; on phosphorylated E1 (E1 phosphorylated first with BDK (0.1 μg) and ATP (0.4 mM), [+] Phenylbutyrate) it was 0.01 ± 0.0017 s⁻¹. In test [2] (increased kcat, lowered Km), the “unphosphorylated E1 (fully active enzyme) catalyzed decarboxylation of all three BCKA” value is “enhanced”. In addition, the “effect on phosphorylated E1 (inactive enzyme)” value at phosphorylated E1 is “did not have an effect”. Besides, the leucine oxidation entry at BCKDC is given as “increased”.
